Assay results taken from patent US8846928B2 (Portola Pharmaceuticals, Inc., priority 2010, dated 2014).

Each molecule was assayed against T1, full length active recombinant SYK enzyme (Homo sapiens, UniProt P43405) (assay: Inhibition of Syk tyrosine phosphorylation activity (LANCE TR-FRET kinase assay)).
T1 construct: full length active recombinant SYK enzyme (Millipore, Calif.); purchased Millipore
Type: biochemical
`CC(C)n1ccc2c(Nc3nc(N[C@@H]4CCCC(F)(F)[C@@H]4N)c(F)cc3C(N)=O)cccc21` [Example 391, 6-((1R,2R)-2-amino-3,3-difluorocyclohexylamino)-5-fluoro-2-(1-isopropyl-1H-indol-4-ylamino)nicotinamide] was tested, and the IC50 was 10 to 100 nM.
`CC(C)Cn1ccc2c(Nc3nc(N[C@@H]4CCCC(F)(F)[C@@H]4N)c(F)cc3C(N)=O)cccc21` [Example 392, 6-((1R,2R)-2-amino-3,3-difluorocyclohexylamino)-5-fluoro-2-(1-isobutyl-1H-indol-4-ylamino)nicotinamide] gave an IC50 of 100 to 1000 nM.
`NC(=O)c1cc(F)c(N[C@@H]2CCCC[C@@H]2N)nc1Nc1csc2ncccc12` [Example 393] gave an IC50 of 1 to 10 nM.
For `NC(=O)c1cc(F)c(N[C@@H]2CCCC[C@@H]2N)nc1Nc1csc2ccncc12` [Example 394, 6-((1R,2S)-2-aminocyclohexylamino)-5-fluoro-2-(thieno[3,2-c]pyridin-3-ylamino)nicotinamide], the IC50 was 10 to 100 nM.
`CN1C(=O)Cc2c(Nc3nc(N[C@@H]4CCCC(F)(F)[C@@H]4N)c(F)cc3C(N)=O)cccc21` [Example 395, 6-((1R,2R)-2-amino-3,3-difluorocyclohexylamino)-5-fluoro-2-(1-methyl-2-oxoindolin-4-ylamino)nicotinamide] showed an IC50 greater than 1000 nM.
Work on `Cn1ccc2c(Nc3nc(N[C@@H]4CCCC[C@@H]4N)ccc3C(N)=O)cccc21` [Example 396, 6-((1R,2S)-2-aminocyclohexylamino)-2-(1-methyl-1H-indol-4-ylamino)nicotinamide] yielded an IC50 of 1 to 10 nM.
`Cn1ccc2cc(Nc3nc(N[C@@H]4CCCC[C@@H]4N)ccc3C(N)=O)ccc21` [Example 397, 6-((1R,2S)-2-aminocyclohexylamino)-2-(1-methyl-1H-indol-5-ylamino)nicotinamide] gave an IC50 of 1 to 10 nM.
For `Cn1ncc2c(Nc3nc(N[C@@H]4CCCC[C@@H]4N)ccc3C(N)=O)cccc21` [Example 398, 6-((1R,2S)-2-aminocyclohexylamino)-2-(1-methyl-1H-indazol-4-ylamino)nicotinamide], the IC50 was 1 to 10 nM.
`Cn1ncc2cc(Nc3nc(N[C@@H]4CCCC[C@@H]4N)ccc3C(N)=O)ccc21` [Example 399, 6-((1R,2S)-2-aminocyclohexylamino)-2-(1-methyl-1H-indazol-5-ylamino)nicotinamide] gave an IC50 of 1 to 10 nM.
`NC(=O)c1ccc(N[C@@H]2CCCC[C@@H]2N)nc1Nc1ccc2scnc2c1` [Example 400, 6-((1R,2S)-2-aminocyclohexylamino)-2-(benzo[d]thiazol-5-ylamino)nicotinamide] gave an IC50 of 1 to 10 nM.
Molecule `NC(=O)c1ccc(N[C@@H]2CCCC[C@@H]2N)nc1Nc1cccc2ncsc12` [Example 401, 6-((1R,2S)-2-aminocyclohexylamino)-2-(benzo[d]thiazol-7-ylamino)nicotinamide] has an IC50 of 1 to 10 nM.
With `NC(=O)c1ccc(N[C@@H]2CCCC[C@@H]2N)nc1Nc1csc2ncccc12` [Example 402, 6-((1R,2S)-2-aminocyclohexylamino)-2-(thieno[2,3-b]pyridin-3-ylamino)nicotinamide] the IC50 was less than 1 nM.
Molecule `NC(=O)c1ccc(N[C@@H]2CCCC[C@@H]2N)nc1Nc1ccc2ncsc2c1` [Example 403, 6-((1R,2S)-2-aminocyclohexylamino)-2-(benzo[d]thiazol-6-ylamino)nicotinamide] has an IC50 of 1 to 10 nM.
With `NC(=O)c1ccc(N[C@@H]2CCCC[C@@H]2N)nc1Nc1ccc2nc(O)sc2c1` [Example 404, 6-((1R,2S)-2-aminocyclohexylamino)-2-(2-hydroxybenzo[d]thiazol-6-ylamino)nicotinamide] the IC50 was 1 to 10 nM.
Work on `NC(=O)c1cc(F)c(N[C@@H]2CCCC(F)(F)[C@@H]2N)nc1Nc1csc2ncccc12` [Example 405, 6-((1R,2R)-2-amino-3,3-difluorocyclohexylamino)-5-fluoro-2-(thieno[2,3-b]pyridin-3-ylamino)nicotinamide] yielded an IC50 of 10 to 100 nM.
In the case of `NC(=O)c1ccc(N[C@@H]2CCCC[C@@H]2N)nc1Nc1cnc2ccncc2c1` [Example 406, 2-(1,6-naphthyridin-3-ylamino)-6-((1R,2S)-2-aminocyclohexylamino)nicotinamide], the IC50 is reported as 10 to 100 nM.
`NC(=O)c1ccc(N[C@@H]2CCCC[C@@H]2N)nc1Nc1cnc2cc[nH]c2c1` [Example 407] gave an IC50 of 10 to 100 nM.
`NC(=O)c1cc(F)c(N[C@@H]2CCCC[C@@H]2N)nc1Nc1cc(F)c[n+]([O-])c1` [Example 408, 3-(6-((1R,2S)-2-aminocyclohexylamino)-3-carbamoyl-5-fluoropyridin-2-ylamino)-5-fluoropyridine 1-oxide] was tested, and the IC50 was 100 to 1000 nM.
`NC(=O)c1ccc(N[C@@H]2CCCC[C@@H]2N)nc1Nc1cnn2ccccc12` [Example 419, 6-((1R,2S)-2-aminocyclohexylamino)-2-(pyrazolo[1,5-a]pyridin-3-ylamino)nicotinamide] gave an IC50 of 1 to 10 nM.
`NC(=O)c1cc(F)c(N[C@@H]2CCCC(F)(F)[C@@H]2N)nc1Nc1cnn2ccccc12` [Example 420, 6-((1R,2R)-2-amino-3,3-difluorocyclohexylamino)-5-fluoro-2-(pyrazolo[1,5-a]pyridin-3-ylamino)nicotinamide] was tested, and the IC50 was 10 to 100 nM.
Molecule `NC(=O)c1cnc(N[C@@H]2CCCC[C@@H]2N)cc1Nc1cnn2ccccc12` [Example 421, 6-((1R,2S)-2-aminocyclohexylamino)-4-(pyrazolo[1,5-a]pyridin-3-ylamino)nicotinamide] has an IC50 greater than 1000 nM.
For `NC(=O)c1cnc(N[C@@H]2CCCC[C@@H]2N)cc1Nc1csc2ncccc12` [Example 422], the IC50 was greater than 1000 nM.
`CC[C@@H](Nc1nc(Nc2csc3ncccc23)c(C(N)=O)cc1F)C(N)=O` [Example 423, (R)-6-(1-amino-1-oxobutan-2-ylamino)-5-fluoro-2-(thieno[2,3-b]pyridin-3-ylamino)nicotinamide] showed an IC50 of 10 to 100 nM.
Molecule `CC[C@@H](Nc1nc(Nc2cnn3ccccc23)c(C(N)=O)cc1F)C(N)=O` [Example 424, (R)-6-(1-amino-1-oxobutan-2-ylamino)-5-fluoro-2-(pyrazolo[1,5-a]pyridin-3-ylamino)nicotinamide] has an IC50 of 10 to 100 nM.
With `CC[C@@H](Nc1ccc(C(N)=O)c(Nc2csc3ncccc23)n1)C(N)=O` [Example 425, (R)-6-(1-amino-1-oxobutan-2-ylamino)-2-(thieno[2,3-b]pyridin-3-ylamino)nicotinamide] the IC50 was 10 to 100 nM.
